Legend:
[1] = target: Insulin-like growth factor 1 receptor (Homo sapiens) (UniProt P08069); assay: Residual activity of IGF1R at 0.1 uM by microplate scintillation counting
[2] = target: Protein-tyrosine kinase 6 (Homo sapiens) (UniProt Q13882); assay: Residual activity of BRK at 0.1 uM by microplate scintillation counting
[3] = target: T1, Protein kinase C iota type (Homo sapiens) (UniProt P41743); assay: Residual activity of PKCiota at 0.1 uM by microplate scintillation counting
T1 sequence (whole entry): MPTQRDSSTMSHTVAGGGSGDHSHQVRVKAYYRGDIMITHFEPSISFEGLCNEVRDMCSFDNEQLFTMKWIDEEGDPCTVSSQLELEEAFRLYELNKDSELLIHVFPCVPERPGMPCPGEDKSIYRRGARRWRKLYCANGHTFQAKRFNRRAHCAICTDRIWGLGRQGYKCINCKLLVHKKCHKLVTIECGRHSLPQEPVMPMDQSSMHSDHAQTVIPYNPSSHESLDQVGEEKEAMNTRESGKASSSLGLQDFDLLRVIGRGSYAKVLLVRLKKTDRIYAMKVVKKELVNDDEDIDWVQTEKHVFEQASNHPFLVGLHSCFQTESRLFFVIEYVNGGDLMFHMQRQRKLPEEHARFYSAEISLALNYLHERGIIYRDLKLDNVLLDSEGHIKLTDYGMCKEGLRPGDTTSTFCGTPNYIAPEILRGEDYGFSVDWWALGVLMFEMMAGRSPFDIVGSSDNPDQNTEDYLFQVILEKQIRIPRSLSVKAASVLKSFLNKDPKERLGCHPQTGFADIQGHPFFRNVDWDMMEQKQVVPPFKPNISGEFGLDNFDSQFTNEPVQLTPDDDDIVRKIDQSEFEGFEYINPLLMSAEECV

[4] = target: Mitogen-activated protein kinase 14 (Homo sapiens) (UniProt Q16539); assay: Residual activity of p38alpha at 0.1 uM by microplate scintillation counting
[5] = target: 3-phosphoinositide-dependent protein kinase 1 (Homo sapiens) (UniProt O15530); assay: Residual activity of PDK1 at 10 uM by microplate scintillation counting
[6] = target: Protein kinase C beta type (Homo sapiens) (UniProt P05771); assay: Residual activity of PKCbeta2 at 10 uM by microplate scintillation counting
[7] = target: T2, NUAK family SNF1-like kinase 2 (Homo sapiens) (UniProt Q9H093); assay: Residual activity of SNARK at 0.1 uM by microplate scintillation counting
T2 sequence (whole entry): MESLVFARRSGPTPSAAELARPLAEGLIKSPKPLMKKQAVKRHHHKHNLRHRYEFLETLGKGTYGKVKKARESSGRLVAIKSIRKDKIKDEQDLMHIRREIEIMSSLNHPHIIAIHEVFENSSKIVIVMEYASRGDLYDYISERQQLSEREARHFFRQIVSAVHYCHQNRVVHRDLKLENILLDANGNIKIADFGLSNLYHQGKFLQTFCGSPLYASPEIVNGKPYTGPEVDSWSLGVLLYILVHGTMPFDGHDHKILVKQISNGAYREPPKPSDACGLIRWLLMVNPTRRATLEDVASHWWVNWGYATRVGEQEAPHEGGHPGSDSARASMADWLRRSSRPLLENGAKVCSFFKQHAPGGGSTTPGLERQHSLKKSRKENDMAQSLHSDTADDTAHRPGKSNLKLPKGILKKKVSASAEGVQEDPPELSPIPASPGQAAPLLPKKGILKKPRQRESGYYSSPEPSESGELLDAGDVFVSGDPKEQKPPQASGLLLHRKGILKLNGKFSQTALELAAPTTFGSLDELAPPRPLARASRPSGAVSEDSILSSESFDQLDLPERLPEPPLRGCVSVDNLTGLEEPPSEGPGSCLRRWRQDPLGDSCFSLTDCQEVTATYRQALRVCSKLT

[8] = target: T3, Protein kinase C epsilon type (Homo sapiens) (UniProt Q02156); assay: Residual activity of PKCepsilon at 0.1 uM by microplate scintillation counting
T3 sequence (whole entry): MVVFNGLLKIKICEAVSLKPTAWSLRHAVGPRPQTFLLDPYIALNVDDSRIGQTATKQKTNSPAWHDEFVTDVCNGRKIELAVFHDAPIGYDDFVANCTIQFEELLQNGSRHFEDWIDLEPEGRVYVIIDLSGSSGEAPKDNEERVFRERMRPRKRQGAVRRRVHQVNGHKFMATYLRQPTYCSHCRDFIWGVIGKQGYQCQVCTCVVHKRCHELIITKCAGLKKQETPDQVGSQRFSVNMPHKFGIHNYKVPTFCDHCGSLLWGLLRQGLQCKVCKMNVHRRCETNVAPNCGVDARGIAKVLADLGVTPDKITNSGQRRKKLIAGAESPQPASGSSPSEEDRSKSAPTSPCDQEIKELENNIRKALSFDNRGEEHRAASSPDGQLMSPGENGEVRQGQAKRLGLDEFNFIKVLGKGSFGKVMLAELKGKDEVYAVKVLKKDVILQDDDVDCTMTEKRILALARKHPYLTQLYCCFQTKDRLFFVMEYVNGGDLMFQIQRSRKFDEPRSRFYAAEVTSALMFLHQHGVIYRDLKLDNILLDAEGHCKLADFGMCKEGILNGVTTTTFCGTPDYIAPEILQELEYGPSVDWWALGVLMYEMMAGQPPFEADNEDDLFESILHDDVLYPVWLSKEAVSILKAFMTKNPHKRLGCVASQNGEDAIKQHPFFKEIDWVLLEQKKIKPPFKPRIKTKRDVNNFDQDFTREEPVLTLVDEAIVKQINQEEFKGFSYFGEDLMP

[9] = target: Tyrosine-protein kinase BTK (Homo sapiens) (UniProt Q06187); assay: Residual activity of BTK at 1 uM by microplate scintillation counting
[10] = target: Mast/stem cell growth factor receptor Kit (Homo sapiens) (UniProt P10721); assay: Residual activity of wild type KIT at 0.1 uM by microplate scintillation counting
[11] = target: Casein kinase I isoform gamma-2 (Homo sapiens) (UniProt P78368); assay: Residual activity of CK1gamma2 at 1 uM by microplate scintillation counting
[12] = target: Serine/threonine-protein kinase 24 (Homo sapiens) (UniProt Q9Y6E0); assay: Residual activity of MST3 at 10 uM by microplate scintillation counting

3-phosphoinositide-dependent protein kinase 1 (Homo sapiens), sequence (O15530 whole entry, looked up): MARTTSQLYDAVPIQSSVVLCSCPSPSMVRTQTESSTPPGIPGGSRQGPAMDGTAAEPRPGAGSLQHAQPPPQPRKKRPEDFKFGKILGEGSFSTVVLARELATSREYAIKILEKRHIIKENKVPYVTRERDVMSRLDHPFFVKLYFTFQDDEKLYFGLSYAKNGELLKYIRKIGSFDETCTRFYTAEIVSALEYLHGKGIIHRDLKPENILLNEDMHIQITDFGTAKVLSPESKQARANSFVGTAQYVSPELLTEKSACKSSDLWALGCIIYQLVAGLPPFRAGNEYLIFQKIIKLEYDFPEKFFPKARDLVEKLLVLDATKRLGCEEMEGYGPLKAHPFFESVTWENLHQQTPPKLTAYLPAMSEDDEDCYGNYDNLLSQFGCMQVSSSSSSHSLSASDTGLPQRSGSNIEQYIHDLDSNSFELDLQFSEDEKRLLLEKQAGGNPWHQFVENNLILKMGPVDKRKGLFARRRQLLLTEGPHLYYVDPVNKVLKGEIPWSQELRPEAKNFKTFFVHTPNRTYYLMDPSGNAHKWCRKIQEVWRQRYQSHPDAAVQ
Casein kinase I isoform gamma-2 (Homo sapiens), sequence (P78368 whole entry, looked up, canonical isoform): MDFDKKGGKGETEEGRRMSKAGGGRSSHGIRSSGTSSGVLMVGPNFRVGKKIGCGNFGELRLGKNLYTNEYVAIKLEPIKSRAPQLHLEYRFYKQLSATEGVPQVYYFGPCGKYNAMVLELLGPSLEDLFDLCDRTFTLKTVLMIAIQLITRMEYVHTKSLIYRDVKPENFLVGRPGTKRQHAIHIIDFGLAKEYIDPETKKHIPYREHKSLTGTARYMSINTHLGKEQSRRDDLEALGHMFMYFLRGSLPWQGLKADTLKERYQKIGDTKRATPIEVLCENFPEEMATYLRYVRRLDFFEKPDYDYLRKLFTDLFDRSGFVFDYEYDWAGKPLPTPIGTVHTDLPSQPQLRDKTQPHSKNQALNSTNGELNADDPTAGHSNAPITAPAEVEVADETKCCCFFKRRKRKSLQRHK
Mast/stem cell growth factor receptor Kit (Homo sapiens), sequence (P10721 whole entry, canonical isoform): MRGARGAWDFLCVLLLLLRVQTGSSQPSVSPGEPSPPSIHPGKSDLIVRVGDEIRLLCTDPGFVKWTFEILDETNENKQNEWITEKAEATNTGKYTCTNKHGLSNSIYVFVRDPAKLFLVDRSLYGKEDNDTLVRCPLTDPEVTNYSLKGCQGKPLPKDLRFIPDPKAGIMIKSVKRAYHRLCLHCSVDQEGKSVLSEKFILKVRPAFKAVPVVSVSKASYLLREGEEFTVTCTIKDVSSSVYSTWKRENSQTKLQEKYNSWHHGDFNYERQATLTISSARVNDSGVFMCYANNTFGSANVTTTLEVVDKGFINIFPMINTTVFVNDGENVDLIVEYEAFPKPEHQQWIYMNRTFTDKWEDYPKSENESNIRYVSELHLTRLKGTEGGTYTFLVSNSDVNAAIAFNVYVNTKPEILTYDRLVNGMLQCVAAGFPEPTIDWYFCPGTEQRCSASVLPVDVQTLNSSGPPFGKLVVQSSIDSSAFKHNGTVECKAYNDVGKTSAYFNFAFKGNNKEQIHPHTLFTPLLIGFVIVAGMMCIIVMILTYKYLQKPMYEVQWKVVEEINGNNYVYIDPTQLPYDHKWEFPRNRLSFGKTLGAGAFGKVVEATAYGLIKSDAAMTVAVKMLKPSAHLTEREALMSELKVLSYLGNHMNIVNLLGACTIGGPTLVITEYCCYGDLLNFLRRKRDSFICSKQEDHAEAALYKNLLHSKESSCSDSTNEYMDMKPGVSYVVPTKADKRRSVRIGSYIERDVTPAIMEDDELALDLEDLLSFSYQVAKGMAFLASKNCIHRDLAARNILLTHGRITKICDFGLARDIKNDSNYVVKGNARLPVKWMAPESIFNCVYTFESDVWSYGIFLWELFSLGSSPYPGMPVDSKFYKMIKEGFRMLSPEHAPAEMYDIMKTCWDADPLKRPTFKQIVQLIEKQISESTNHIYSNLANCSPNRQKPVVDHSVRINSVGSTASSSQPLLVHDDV
Tyrosine-protein kinase BTK (Homo sapiens), sequence (Q06187 whole entry): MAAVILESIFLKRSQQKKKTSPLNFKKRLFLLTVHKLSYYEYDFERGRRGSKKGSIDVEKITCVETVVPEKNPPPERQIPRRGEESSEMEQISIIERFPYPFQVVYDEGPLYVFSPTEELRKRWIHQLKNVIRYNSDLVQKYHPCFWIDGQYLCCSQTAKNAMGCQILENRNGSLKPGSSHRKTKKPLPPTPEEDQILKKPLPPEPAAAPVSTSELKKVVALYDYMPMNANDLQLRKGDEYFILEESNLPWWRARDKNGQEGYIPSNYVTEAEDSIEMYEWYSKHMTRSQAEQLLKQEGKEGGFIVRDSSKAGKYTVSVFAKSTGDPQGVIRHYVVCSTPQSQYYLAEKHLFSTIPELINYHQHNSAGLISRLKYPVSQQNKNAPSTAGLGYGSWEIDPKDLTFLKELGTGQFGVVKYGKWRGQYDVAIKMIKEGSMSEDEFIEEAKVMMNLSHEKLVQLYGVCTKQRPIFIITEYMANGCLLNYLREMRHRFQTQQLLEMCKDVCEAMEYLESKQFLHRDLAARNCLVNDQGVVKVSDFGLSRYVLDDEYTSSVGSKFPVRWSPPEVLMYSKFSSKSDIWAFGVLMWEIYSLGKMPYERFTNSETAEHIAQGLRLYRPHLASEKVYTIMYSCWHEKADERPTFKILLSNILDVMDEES
Protein-tyrosine kinase 6 (Homo sapiens), sequence (Q13882 whole entry, looked up): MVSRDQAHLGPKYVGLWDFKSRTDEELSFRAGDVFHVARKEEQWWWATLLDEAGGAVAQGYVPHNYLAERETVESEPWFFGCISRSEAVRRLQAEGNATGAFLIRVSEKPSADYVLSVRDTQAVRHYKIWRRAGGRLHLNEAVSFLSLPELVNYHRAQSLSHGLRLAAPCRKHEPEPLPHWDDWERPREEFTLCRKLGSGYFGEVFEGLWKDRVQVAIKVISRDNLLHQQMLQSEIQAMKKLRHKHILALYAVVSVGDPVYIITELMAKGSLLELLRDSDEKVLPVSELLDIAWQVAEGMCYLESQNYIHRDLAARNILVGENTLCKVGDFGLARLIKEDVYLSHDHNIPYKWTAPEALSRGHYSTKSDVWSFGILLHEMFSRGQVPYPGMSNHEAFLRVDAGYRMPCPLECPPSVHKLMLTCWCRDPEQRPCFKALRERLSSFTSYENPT
Insulin-like growth factor 1 receptor (Homo sapiens), sequence (P08069 31-736 limits assumed): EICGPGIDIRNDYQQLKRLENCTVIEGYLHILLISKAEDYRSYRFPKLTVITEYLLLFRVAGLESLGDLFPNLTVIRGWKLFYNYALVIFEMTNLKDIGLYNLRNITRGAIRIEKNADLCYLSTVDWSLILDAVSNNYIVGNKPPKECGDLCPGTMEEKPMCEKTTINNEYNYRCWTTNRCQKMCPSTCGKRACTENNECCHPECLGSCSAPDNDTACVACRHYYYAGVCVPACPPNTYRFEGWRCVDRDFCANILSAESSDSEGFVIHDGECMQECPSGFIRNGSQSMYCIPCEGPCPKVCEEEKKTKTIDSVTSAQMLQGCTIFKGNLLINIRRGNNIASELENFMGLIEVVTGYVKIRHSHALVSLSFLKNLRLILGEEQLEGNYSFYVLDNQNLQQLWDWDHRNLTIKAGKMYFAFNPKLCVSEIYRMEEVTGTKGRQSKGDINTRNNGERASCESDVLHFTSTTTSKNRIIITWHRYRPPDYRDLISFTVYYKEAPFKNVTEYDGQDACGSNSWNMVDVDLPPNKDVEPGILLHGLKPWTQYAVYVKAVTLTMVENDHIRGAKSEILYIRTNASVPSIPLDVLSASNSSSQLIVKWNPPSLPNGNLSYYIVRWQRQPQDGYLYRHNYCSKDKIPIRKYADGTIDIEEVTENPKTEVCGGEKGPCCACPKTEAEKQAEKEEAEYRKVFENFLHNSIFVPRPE
Insulin-like growth factor 1 receptor (Homo sapiens), sequence (P08069 741-1367 limits assumed): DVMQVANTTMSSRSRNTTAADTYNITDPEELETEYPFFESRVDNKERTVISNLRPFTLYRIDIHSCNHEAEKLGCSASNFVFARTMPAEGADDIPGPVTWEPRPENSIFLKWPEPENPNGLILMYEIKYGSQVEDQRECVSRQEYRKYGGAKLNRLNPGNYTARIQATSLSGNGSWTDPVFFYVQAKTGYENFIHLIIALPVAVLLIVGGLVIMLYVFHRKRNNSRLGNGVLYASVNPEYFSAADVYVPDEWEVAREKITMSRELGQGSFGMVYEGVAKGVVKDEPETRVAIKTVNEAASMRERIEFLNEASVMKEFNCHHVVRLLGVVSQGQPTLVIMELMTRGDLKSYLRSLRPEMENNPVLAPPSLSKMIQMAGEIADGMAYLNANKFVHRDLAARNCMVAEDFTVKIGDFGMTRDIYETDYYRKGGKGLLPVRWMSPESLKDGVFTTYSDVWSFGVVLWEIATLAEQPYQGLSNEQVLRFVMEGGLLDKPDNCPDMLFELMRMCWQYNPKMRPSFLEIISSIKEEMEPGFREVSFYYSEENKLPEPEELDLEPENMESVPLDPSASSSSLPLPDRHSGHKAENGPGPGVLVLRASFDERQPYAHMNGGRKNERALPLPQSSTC
Mitogen-activated protein kinase 14 (Homo sapiens), sequence (Q16539 whole entry): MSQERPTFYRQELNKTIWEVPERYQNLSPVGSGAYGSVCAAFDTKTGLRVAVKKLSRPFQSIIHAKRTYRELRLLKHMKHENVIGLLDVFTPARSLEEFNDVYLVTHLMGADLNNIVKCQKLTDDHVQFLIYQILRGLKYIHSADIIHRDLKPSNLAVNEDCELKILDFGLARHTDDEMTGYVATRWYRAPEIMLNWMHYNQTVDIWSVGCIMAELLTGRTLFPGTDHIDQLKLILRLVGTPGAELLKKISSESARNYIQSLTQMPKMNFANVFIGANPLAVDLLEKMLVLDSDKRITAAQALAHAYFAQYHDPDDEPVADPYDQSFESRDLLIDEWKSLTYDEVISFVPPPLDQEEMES

COc1cc2c(Oc3ccc(-c4nc5ccccc5s4)cc3)ncnc2cc1OCCCN1CCN(C)CC1
residual activity [1]: 99% | residual activity [2]: 65% | residual activity [3]: 105% | residual activity [4]: 93% | residual activity [5]: 67% | residual activity [6]: 77% | residual activity [7]: 96% | residual activity [8]: 106% | residual activity [9]: 124% | residual activity [10]: 96% | residual activity [11]: 98% | residual activity [12]: 231%

COc1cc2c(Oc3ccc(-c4nc5ccccc5s4)cc3F)ncnc2cc1OCCCN1CCN(C)CC1
residual activity [1]: 113% | residual activity [2]: 35% | residual activity [3]: 87% | residual activity [4]: 101% | residual activity [5]: 61% | residual activity [6]: 53% | residual activity [7]: 88% | residual activity [8]: 108% | residual activity [9]: 114% | residual activity [10]: 96% | residual activity [11]: 100% | residual activity [12]: 229%

COc1cc2c(Oc3ccc(-c4nc5ccccc5s4)cc3)ncnc2cc1OCCCN1CCCC1
residual activity [1]: 114% | residual activity [2]: 57% | residual activity [3]: 102% | residual activity [4]: 100% | residual activity [5]: 66% | residual activity [6]: 69% | residual activity [7]: 84% | residual activity [8]: 112% | residual activity [9]: 163% | residual activity [10]: 101% | residual activity [11]: 107% | residual activity [12]: 165%

Reference: ChEMBL document CHEMBL1152560, “Substituted 2-arylbenzothiazoles as kinase inhibitors: hit-to-lead optimization” (Bioorg Med Chem, 2009)
